Test results taken from EP0258175A2, “5-hetero- or aryl-substituted-imidazo[2,1-a]isoquinolines” (SANDOZ AG, priority 1986, dated 1988).
Where a name gives a salt, the structure may show the parent alone.

What was measured:
Abelson 8.1 tumor cells [1] = test: Tumor cell cytotoxicity Test (TCCT) (Test D), alkaline phosphatase readout; format: cell-based; conditions: at 5µg
Experimental: Test D) Tumor cell cytotoxicity Test (TCCT).
In flat bottom microtiter plates (Nunc Roskieide, Denmark) were placed Abelson 8.1 tumor cells in DMEM + 10% fetal calf serum and the tumor cell-containing plates were incubated with 1,3, and 5µg of the test compound for a period of 6 to 72 hours. The number of viable tumor cells present was determined by measuring the alkaline phosphatase in the following manner. The tumor cell plates were centrifuged (500 x g.) for ten minutes and the supernatant flicked off. Without further washing, 100 ul of buffer containing 20 ul of diethanolamine, 2uM of MgCl₂ · 6H₂O, 2.5 uM of p-nitrophenylphosphate and 10 mg Triton X-100 were added. The samples were incubated for 60 minutes at room temperature and the enzymatic reaction was terminated by the addition of 100 ul of 0.5N NaOH. The absorbance was then measured at […] using a Titertek Multiskan apparatus.

Abelson 8.1 tumor cells [2] = test: Influence on Cytotoxicity of ET-18-OCH₃ test (IC-ET test) (Test E); format: cell-based, mice; conditions: at 5 µg, macrophages pre-incubated with 10µg ET-18-OCH₃, values recorded after 72 hours, ET-18-OCH₃ alone set at 100%
Experimental: Test E) Influence on Cytotoxicity of ET-18-OCH₃ test (IC-ET test).
Bone marrow cell macrophages (10⁵/well)obtained from [BALB/CX57/BL₆]Fl mice were incubated with 10µg of 1-octadecyl-2-methoxy-3-phosphoryl choline (ET-18-OCH₃) for 24 hours in flat bottom microtiter plates (Nunc Roskieide,Denmark), after which time they are centrifuged and washed once. Abelson 8.1 tumor cells in DMEM + 10% fetal calf serum and 1,3 and 5ug of the test compound were then added to the plates. With the cytotoxicity of ET-18-OCH₃ (10ug) alone set at 100%, the inhibition or enhancement of the cytotoxic effect, as measured by an alkaline phosphatase assay, was determined and values recorded after 72 hours for 1,3 and 5ug of the test substance.

Meth A sarcoma cells = test: Meth A fibrosarcoma implant in mice (Test F): tumor growth and survivors; format: in vivo; conditions: 50µg per day p.o. for 28 days, ten CBF₁ mice implanted with 7.3 x 10⁶ Meth A sarcoma cells
Description: Test F) Meth A fibrosarcoma cells were induced in BALB/C mice by administering methylcholanthrene according to the procedure of Old, et al. (L.J. Old, E.A. Boyse, D.A. Clarke, and E. Carswell, Ann. N.Y. Acad. Sci., 101, 80 (1962). These tumor cells were harvested from the peritoneal cavity 10 to 12 days after administration of methylcholanthrene. Ten CBF₁ mice of 10-12 week age were each implanted with 7.3 x 10⁶ Meth A sarcoma cells to serve as control. A second group of ten CBF₁ mice were each implanted with 7.3 x 10⁶ Meth A sarcoma cells and on day one after implant each mouse was treated p.o. with 5-50µg of the test compound per day for a total of twenty or twenty-seven days. Tumor growth and survivors were assayed on days 7, 14, 21 and 28 after tumor implantation.

[3] = biological target: T1, Human Platelet PAF Receptor (Homo sapiens, UniProt P25105); test: Human Platelet PAF Receptor Assay test (Test A): inhibition of specific binding of [³H]-PAF to platelets; conditions: inhibition of specific binding of [³H]-PAF to human platelets, read-out: IC₅₀
T1 construct: from tissue; host or cells: washed human platelets from donor blood
T1 sequence (P25105 whole entry): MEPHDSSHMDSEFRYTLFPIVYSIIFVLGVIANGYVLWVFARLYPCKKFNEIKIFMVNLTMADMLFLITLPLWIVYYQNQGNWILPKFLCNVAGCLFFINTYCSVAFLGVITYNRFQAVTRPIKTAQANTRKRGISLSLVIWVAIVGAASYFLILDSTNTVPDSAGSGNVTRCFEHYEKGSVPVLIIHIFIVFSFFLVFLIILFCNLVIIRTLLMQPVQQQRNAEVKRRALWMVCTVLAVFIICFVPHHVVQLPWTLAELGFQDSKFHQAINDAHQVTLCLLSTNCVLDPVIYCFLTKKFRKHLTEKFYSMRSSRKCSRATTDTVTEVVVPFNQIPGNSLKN
Experimental: The compounds of formula I are indicated for use as platelet activating factor receptor antagonists as indicated by their ability to inhibit specific binding of [³H]-PAF to platelets according to the Human Platelet PAF Receptor Assay test (Test A) as follows: Human blood is obtained by venipuncture of healthy, human donors into an anti-coagulant mixture containing 3.15% of trisodium citrate and 20 µg/ml of Prostaglandin I₂ (PGI₂) in a ratio of blood to anti-coagulant of 9:1. Platelet rich plasma (PRP) is prepared by centrifugation (250 x g) of the blood for 20 minutes at room temperature. […] All of the tests are conducted in duplicate and each of the test compounds is evaluated at concentrations of 100, 50, 1 and 0.1 µM. […] An additional 2 ml of Scintiverse II is then added to the vials and, after mixing, the vials are counted for 1 minute in a liquid scintillation spectrometer. The amount of specific binding is calculated as the difference in cpm between the total bound [³H]-PAF and non-specifically bound [³H]-PAF. The percent inhibition of specific binding is determined by dividing the cpm specifically bound in the presence of the test compound by the cpm specifically bound in total, multiplying by 100 and then subtracting from 100. […]

[4] = system: PAF-mediated bronchoconstriction; test: PAF-induced Pulmonary Inflation Pressure (PIP) Increase test (Test B); format: in vivo; conditions: Cavia porcellus, po, guinea pigs, PAF 100 ng/kg i.v., maximal PIP increase, read-out: ED₅₀
Experimental: Furthermore, in view of their potential as PAF receptor antagonists, the compounds of formula I are indicated for use as inhibitors of PAF-mediated bronch oconstriction, which property was evaluated by the PAF-induced Pulmonary Inflation Pressure (PIP) Increase test (Test B) as follows:
Male guinea pigs, weighing between 300 and 400 g, are anesthetized, after which time trachea tube, carotid and jugular cathers are inserted. The test animal is then force ventilated employing a small animal Harvard respirator and the resistance to lung inflation (PIP) is measured utilizing a pressure transducer and recorder. The test compound is administered either orally at 30 minutes up to 4 hours prior to or parenterally e.g. intravenously (jugular) etc. at 5 minutes up to 4 hours prior to the introduction of PAF. […] Any blood pressure measurements taken are recorded from a transducer attached to the carotid catheter. […] A reading at 15 minutes after the administration of PAF is termed the endpoint PIP. The effect of the test compound on the PIP response is determined by the difference between the percent increase in maximal PIP over baseline for the test animal to which has been administered PAF and the test compound compared to the test animal to which only PAF has been administered.

[5] = system: PAF-mediated extravasation; test: PAF-induced Extravasation test (Test C), hemoconcentration (hematocrit); format: in vivo; conditions: Cavia porcellus, po, guinea pigs, PAF 100 ng/kg i.v., inhibition of increase in hematocrit, read-out: ED₅₀
Experimental: Still further, the compounds of formula I are indicated for use as inhibitors of PAF-mediated extravasation (the extrusion of plasma from the lumen of the blood vessels into the vessel wall and surrounding tissues) measured as a function of hemoconcentration according to the PAF-induced Extravasation test(Test C) as follows: Male guinea pigs, weighing between 300 and 400 g, are anesthetized, after which time a femoral catheter is inserted. The test compound is administered either orally or parenterally one hour up to 4 hours prior to the introduction of PAF. The PAF (C₁₈-Sandoz, Hanover) is dissolved in Tris-Tyrode's bovine serum albumin buffer and administered intravenously (jugular) at 100 ng/kg. […] The tubes are then centrifuged and the percent of packed red blood cells (hematocrit) is measured (PAF induces a maximal increase in hematocrit at 5 to 7 minutes subsequent to the injection of PAF). The percent increase in hematocrit over the value prior to the injection of PAF is calculated. The hemacrotit values obtained with the test compound are compared to the hemoconcentration values obtained with PAF alone and are expressed as percent inhibition of percent increase in hematocrit.

C=CCN(CC=C)Cc1ccc(C2=Cc3ccccc3C3=NCCN23)cc1 [Example 3BB, 5-(4ʹ-diallylaminomethylphena]isoquinoline dihydrochloride]
inh. (Abelson 8.1 tumor cells [1]): 99% | inh. (Abelson 8.1 tumor cells [2]): 97%

C1=C(c2ccc(CN3CCCCC3)cc2)N2CCN=C2c2ccccc21.Cl.Cl [Example 3N, 5-(4ʹ-piperidinomethylphenyl)-2,3-dihydroimidazo[2,1-a]isoquinoline dihydrochloride]
Tumor growth (Meth A sarcoma cells): no evidence of the presence of any tumors | survivors (Meth A sarcoma cells; none of the control group survived): all of the animals

COc1cc(CCc2ccc(C3=Cc4ccccc4C4=NCCN34)cc2)cc(OC)c1OC.Cl [Example 7E, 5-[4ʹ-(3,4,5-trimethoxyphenylethyl)phenyl]-2,3-dihydroimidazo [2,1-a]isoquinoline hydrochloride]
IC50 [3]: 60 nM | ED50 [4]: 5 mg/kg | ED50 [5]: 4.2 mg/kg
